Measured values taken from patent US8785459B2, “Quinazoline compounds as kinase inhibitors” (Development Center for Biotechnology, priority 2011, dated 2014).
Like-named read-outs stand apart in the source and are kept apart here.

Columns and labels:
Format in all cases: biochemical
B-Raf = B-Raf (Homo sapiens (Human), UniProt P15056); assay: Raf kinase assay (B-Raf), [33P] incorporation into MEK1(K97R); settings: for inhibition at 1 µM: read-out: B-Raf inhibition at 1.0 μM
Description: (§1) A. Raf Kinase Assays (B-Raf, B-raf (V600E), and C-Raf)
(§2) Inhibition of kinase activity by test compound disclosed herein was estimated by quantifying the amount of [^33P] incorporation of substrate in the presence of test compound. Standard assay conditions were 2 ng of recombinant C-Raf or 5 ng of recombinant B-Raf or 5 ng of recombinant B-Raf (V600E) kinase (Upstate Biotechnology) with 500 ng MEK1(K97R) in assay buffer {8 μM ATP, 0.5 μCi [^33P]ATP (specific activity 3000 Ci/mmol, PerkinElmer), 50 mM Tris/HCl (pH7.5), and 1 mM EGTA, 1 mM Na3VO4, 1% 2-mercaptoethanol, 0.1% Brij 35, and 0.2 mg/ml BSA} at a final volume of 25 μL. Reactions were incubated at 30° C. for 30 min and stopped by adding 3% phosphoric acid, harvested onto a 96-well GF/B UniFilter (PerkinElmer) using a unifilter harvester (PerkinElmer), and counted with a TopCount microplate scintillation counter (PerkinElmer). The IC50 values of inhibitors were determined after carrying out assays at 3-fold serially diluted concentrations of each compound in duplication. The results were analyzed using linear regression software (GraphPad Prism 4; GraphPad Software Inc.). Inhibition of B-Raf, B-raf (V600E), and C-Raf kinases by various compounds listed in Table 1 are summarized and shown in Table 3 below. IC50 value is defined as the concentration of the test compound which achieves a half-maximal inhibition of the kinase activity.

B-Raf (V600E) = B-Raf (V600E) (Homo sapiens (Human), UniProt P15056, V600E); assay: Raf kinase assay (B-Raf (V600E)), [33P] incorporation into MEK1(K97R)
Chain of B-Raf (V600E) (P15056 whole entry V600E): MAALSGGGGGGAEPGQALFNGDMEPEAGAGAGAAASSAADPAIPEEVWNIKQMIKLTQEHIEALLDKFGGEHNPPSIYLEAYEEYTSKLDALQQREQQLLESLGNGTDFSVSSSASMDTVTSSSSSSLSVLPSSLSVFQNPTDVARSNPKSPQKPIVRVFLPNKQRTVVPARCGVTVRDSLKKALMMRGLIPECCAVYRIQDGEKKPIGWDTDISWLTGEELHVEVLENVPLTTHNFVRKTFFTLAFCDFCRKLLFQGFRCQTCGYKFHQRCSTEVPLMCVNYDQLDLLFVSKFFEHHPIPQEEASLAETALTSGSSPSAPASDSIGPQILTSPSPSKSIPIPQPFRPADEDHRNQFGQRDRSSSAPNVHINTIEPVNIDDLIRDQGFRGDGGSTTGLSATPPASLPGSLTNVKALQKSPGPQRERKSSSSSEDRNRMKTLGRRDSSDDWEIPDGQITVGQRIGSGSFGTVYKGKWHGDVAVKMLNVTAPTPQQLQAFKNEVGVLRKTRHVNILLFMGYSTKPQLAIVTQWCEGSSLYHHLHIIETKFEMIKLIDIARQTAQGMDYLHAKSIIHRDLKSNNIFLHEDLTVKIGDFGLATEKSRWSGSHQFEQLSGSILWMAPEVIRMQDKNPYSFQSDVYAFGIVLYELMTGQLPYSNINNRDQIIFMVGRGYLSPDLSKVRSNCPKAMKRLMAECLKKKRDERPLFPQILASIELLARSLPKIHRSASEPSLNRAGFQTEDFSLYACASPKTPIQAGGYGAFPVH
Description: as §1, §2

C-Raf = C-Raf (Homo sapiens (Human), UniProt P04049); assay: Raf kinase assay (C-Raf), [33P] incorporation into MEK1(K97R)
Chain of C-Raf (P04049 whole entry): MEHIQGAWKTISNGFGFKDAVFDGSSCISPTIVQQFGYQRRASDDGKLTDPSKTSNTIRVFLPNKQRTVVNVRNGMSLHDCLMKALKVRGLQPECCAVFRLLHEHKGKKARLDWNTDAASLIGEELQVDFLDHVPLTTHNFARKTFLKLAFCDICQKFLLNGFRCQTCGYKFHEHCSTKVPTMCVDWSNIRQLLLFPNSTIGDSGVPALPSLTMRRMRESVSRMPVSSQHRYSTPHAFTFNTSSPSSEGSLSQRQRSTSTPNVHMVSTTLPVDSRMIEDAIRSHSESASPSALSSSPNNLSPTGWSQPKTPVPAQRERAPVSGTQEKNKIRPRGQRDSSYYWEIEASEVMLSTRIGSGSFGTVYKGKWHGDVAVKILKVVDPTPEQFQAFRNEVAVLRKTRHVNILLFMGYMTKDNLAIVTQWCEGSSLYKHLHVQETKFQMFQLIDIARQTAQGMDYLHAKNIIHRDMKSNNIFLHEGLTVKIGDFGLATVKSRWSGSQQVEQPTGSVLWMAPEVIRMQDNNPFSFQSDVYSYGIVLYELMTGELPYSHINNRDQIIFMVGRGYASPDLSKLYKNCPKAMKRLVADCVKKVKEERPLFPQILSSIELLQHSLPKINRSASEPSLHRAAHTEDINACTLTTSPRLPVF
Description: as §1, §2

Chain of B-Raf (P15056 whole entry): as the sequence (P15056 whole entry V600E) above, with E600V counted along it

| SMILES | inhibition at 1 µM (B-Raf; 1.0 μM compound) | other results |
| --- | --- | --- |
| CN(C)c1ccc(-c2ccc3ncnc(Nc4cccc5[nH]ncc45)c3c2)cc1 [Compound 90, 6-(4-(dimethylamino)phenyl)-N-(1H-indazol-4-yl)quinazolin-4-amine] | 56.1% | IC50 (B-Raf (V600E)): 1010 nM; IC50 (C-Raf): 4080 nM; IC50 (B-Raf): 762 nM |
| COc1cc(-c2ccc3ncnc(Nc4ccc5cc[nH]c5c4)c3c2)ccc1O [Compound 40, 4-(4-(1H-indol-6-ylamino)quinazolin-6-yl)-2-methoxyphenol] | 32.2% | – |
| COc1cc(-c2ccc3ncnc(Nc4ccc(C(N)=O)cc4)c3c2)ccc1O [Compound 47, 4-(6-(4-hydroxy-3-methoxyphenyl)quinazolin-4-ylamino)benzamide] | 37.8% | – |
| COc1ccc(Nc2ncnc3cc(OC)c(-c4ccc(O)c(OC)c4)cc23)cc1O [Compound 42, 4-(4-(3-hydroxy-4-methoxyphenylamino)-7-methoxyquinazolin-6-yl)-2-methoxyphenol] | 20.4% | – |
| COc1cc(-c2ccc3ncnc(Nc4cccc5[nH]ccc45)c3c2)ccc1O [Compound 83, 4-(4-(1H-indol-4-ylamino)quinazolin-6-yl)-2-methoxyphenol] | 36.3% | – |
| COc1cc(-c2ccc3ncnc(Nc4cc(NS(C)(=O)=O)c(F)cc4F)c3c2)ccc1O [Compound 150, N-(2,4-difluoro-5-(6-(4-hydroxy-3-methoxyphenyl)quinazolin-4-ylamino)phenyl)methanesulfonamide] | 37.2% | – |
| C#Cc1cccc(Nc2ncnc3ccc(-c4ccc(OC)cc4)cc23)c1 [Compound 151, N-(3-ethynylphenyl)-6-(4-methoxyphenyl)quinazolin-4-amine] | -5.4% | – |
| COc1cc(-c2ccc3ncnc(Nc4cccc(NS(=O)(=O)C(F)(F)F)c4)c3c2)ccc1O [Compound 65, 1,1,1-trifluoro-N-(3-(6-(4-hydroxy-3-methoxyphenyl)quinazolin-4-ylamino)phenyl)methanesulfonamide] | 40.4% | – |
| COc1cc(-c2ccc3ncnc(Nc4c(C)ccc5[nH]ncc45)c3c2)ccc1O [Compound 155, 2-methoxy-4-(4-(5-methyl-1H-indazol-4-ylamino)quinazolin-6-yl)phenol] | 8.2% | – |
| CCNC(=O)Oc1ccc(-c2ccc3ncnc(Nc4ccccc4)c3c2)cc1OC [Compound 9, 2-methoxy-4-(4-(phenylamino)quinazolin-6-yl)phenyl ethylcarbamate] | – | inhibition at 1 µM (B-Raf): 13.8% |
| COc1cc(-c2ccc3ncnc(Nc4ccccc4C(=O)O)c3c2)ccc1O [Compound 50, 2-(6-(4-hydroxy-3-methoxyphenyl)quinazolin-4-ylamino)benzoic acid] | 15.6% | – |
| COc1cc(-c2ccc3ncnc(Nc4cc(O)ccc4OC)c3c2)ccc1O [Compound 55, 4-(4-(5-hydroxy-2-methoxyphenylamino)quinazolin-6-yl)-2-methoxyphenol] | 38.1% | – |
| COc1ccc(C(=O)O)c(Nc2ncnc3ccc(-c4ccc(O)c(OC)c4)cc23)c1 [Compound 48, 2-(6-(4-hydroxy-3-methoxyphenyl)quinazolin-4-ylamino)-4-methoxybenzoic acid] | 30.6% | – |
| COc1cc(-c2ccc3nccc(Nc4ccc(Cl)c(NS(C)(=O)=O)c4)c3c2)ccc1O [Compound 141, N-(2-chloro-5-(6-(4-hydroxy-3-methoxyphenyl)quinolin-4-ylamino)phenyl)methanesulfonamide] | 4.6% | – |
| COc1cc(-c2ccc3nccc(Nc4ccc(F)c(NS(C)(=O)=O)c4)c3c2)ccc1O [Compound 145, N-(2-fluoro-5-(6-(4-hydroxy-3-methoxyphenyl)quinolin-4-ylamino)phenyl)methanesulfonamide] | 7.5% | – |
| CCS(=O)(=O)Nc1ccc(-c2ccc3ncnc(Nc4ccccc4)c3c2)cc1 [Compound 24, N-(4-(4-(phenylamino)quinazolin-6-yl)phenyl)ethanesulfonamide] | 48.6% | IC50 (B-Raf (V600E)): 1810 nM; IC50 (B-Raf): 1700 nM |
| COc1cc(-c2ccc3ncnc(Nc4ccccc4)c3c2)ccc1OC(=O)Nc1ccccc1 [Compound 7, 2-methoxy-4-(4-(phenylamino)quinazolin-6-yl)phenyl phenylcarbamate] | – | inhibition at 1 µM (B-Raf): 23.5% |
| CCNC(=O)Nc1ccc(-c2ccc3ncnc(Nc4ccccc4)c3c2)cc1 [Compound 12, 1-ethyl-3-(4-(4-(phenylamino)quinazolin-6-yl)phenyl)urea] | 18.2% | – |
| COc1cc(-c2ccc3ncnc(Nc4c(F)ccc5[nH]ncc45)c3c2)ccc1O [Compound 149, 4-(4-(5-fluoro-1H-indazol-4-ylamino)quinazolin-6-yl)-2-methoxyphenol] | – | B-Raf inhibition at 1.0 μM (B-Raf; 1.0 μM compound): 15.2% |
| COc1cc(-c2ccc3ncnc(Nc4ccc(C(=O)O)cc4)c3c2)ccc1O [Compound 57, 4-(6-(4-hydroxy-3-methoxyphenyl)quinazolin-4-ylamino)benzoic acid] | 4.8% | – |
| CCS(=O)(=O)Nc1ccc(-c2ccc3ncnc(Nc4cccc(NS(=O)(=O)CC)c4)c3c2)cc1 [Compound 26, N-(3-(6-(4-(ethylsulfonamido)phenyl)quinazolin-4-ylamino)phenyl)ethanesulfonamide] | 45.7% | – |
| c1ccc(Nc2ncnc3ccc(-c4ccccc4)cc23)cc1 [Compound 132, N,6-diphenylquinazolin-4-amine] | 22.4% | – |
| COc1cc(-c2ccc3ncnc(Nc4cc(NS(C)(=O)=O)ccc4Cl)c3c2)ccc1O [Compound 139, N-(4-chloro-3-(6-(4-hydroxy-3-methoxyphenyl)quinazolin-4-ylamino)phenyl)methanesulfonamide] | 25.8% | – |
| COc1cc(-c2ccc3ncnc(Nc4ccc(Cl)c(NS(C)(=O)=O)c4)c3c2)ccc1O [Compound 140, N-(2-chloro-5-(6-(4-hydroxy-3-methoxyphenyl)quinazolin-4-ylamino)phenyl)methanesulfonamide] | 24.3% | – |

Second part, led by results:

| inhibition at 1 µM (B-Raf; 1.0 μM compound) | SMILES | other results |
| --- | --- | --- |
| 19.9% | NC(=O)Nc1ccc(-c2ccc3ncnc(Nc4ccccc4)c3c2)cc1 [Compound 11, 1-(4-(4-(phenylamino)quinazolin-6-yl)phenyl)urea] | – |
| 79.1% | Fc1cccc(-c2ccc3ncnc(Nc4cccc5[nH]ncc45)c3c2)c1 [Compound 81, 6-(3-fluorophenyl)-N-(1H-indazol-4-yl)quinazolin-4-amine] | IC50 (B-Raf (V600E)): 280 nM; IC50 (C-Raf): 588 nM; IC50 (B-Raf): 244 nM |
| 81.1% | Cc1ccc(F)cc1-c1ccc2ncnc(Nc3cccc4[nH]ncc34)c2c1 [Compound 104, 6-(5-fluoro-2-methylphenyl)-N-(1H-indazol-4-yl)quinazolin-4-amine] | IC50 (B-Raf (V600E)): 357 nM; IC50 (C-Raf): 778 nM; IC50 (B-Raf): 235 nM |
| 70.9% | CS(=O)(=O)Nc1cccc(-c2ccc3ncnc(Nc4cccc5[nH]ncc45)c3c2)c1 [Compound 95, N-(3-(4-(1H-indazol-4-ylamino)quinazolin-6-yl)phenyl)methanesulfonamide] | IC50 (B-Raf (V600E)): 534 nM; IC50 (C-Raf): 1290 nM; IC50 (B-Raf): 430 nM |
| -6.5% | O=S(=O)(Nc1ccc(-c2ccc3ncnc(Nc4ccccc4)c3c2)cc1)c1ccc(F)cc1 [Compound 70, 4-fluoro-N-(4-(4-(phenylamino)quinazolin-6-yl)phenyl)benzenesulfonamide] | – |
| 30.5% | O=S(=O)(Nc1ccc(-c2ccc3ncnc(Nc4ccccc4)c3c2)cc1)c1ccccc1 [Compound 28, N-(4-(4-(phenylamino)quinazolin-6-yl)phenyl)benzenesulfonamide] | – |
| 34.7% | COc1cc(-c2ccc3ncnc(Nc4cccc(C(=O)O)c4)c3c2)ccc1O [Compound 32, 3-(6-(4-hydroxy-3-methoxyphenyl)quinazolin-4-ylamino)benzoic acid] | – |
| 44.1% | COc1cc(-c2ccc3ncnc(Nc4ccc(F)c(NS(C)(=O)=O)c4)c3c2)ccc1O [Compound 130, N-(2-fluoro-5-(6-(4-hydroxy-3-methoxyphenyl)quinazolin-4-ylamino)phenyl)methanesulfonamide] | – |
| 23.3% | Fc1ccc(Nc2ncnc3ccc(-c4ccc5[nH]ncc5c4)cc23)cc1Cl [Compound 142, N-(3-chloro-4-fluorophenyl)-6-(1H-indazol-5-yl)quinazolin-4-amine] | – |
| 15.8% | COc1ccc(-c2ccc3ncnc(Nc4ccccc4)c3c2)cc1 [Compound 10, 6-(4-methoxyphenyl)-N-phenylquinazolin-4-amine] | – |
| 7.7% | COc1cc(-c2ccc3ncnc(Nc4ccc(OC)c(OC)c4)c3c2)ccc1O [Compound 13, 4-(4-(3,4-dimethoxyphenylamino)quinazolin-6-yl)-2-methoxyphenol] | – |
| 10% | COc1cc(-c2cc3c(Nc4ccccc4)ncnc3cc2OC)ccc1O [Compound 30, 2-methoxy-4-(7-methoxy-4-(phenylamino)quinazolin-6-yl)phenol] | – |
| 24% | COc1cc(-c2ccc3ncc(C#N)c(Nc4cccc5[nH]ncc45)c3c2)ccc1O [Compound 135, 4-(1H-indazol-4-ylamino)-6-(4-hydroxy-3-methoxyphenyl)quinoline-3-carbonitrile] | – |
